In patent US8778966B2, “Quinolinone derivatives as PARP and tank inhibitors” (Janssen Pharmaceutica, NV, priority 2007, dated 2014):

Key:
PC3 cells = assay: EB1 Comet (microtubule disruption) assay; assay type: cell-based, human; details: Homo sapiens, PC-3, 1 h, 1 hour treatment, read-out: EB1 pLAC (converted)
In short: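 PC3 human prostate cancer cells exposed to compound for 1 h at 37 °C (0.6% DMSO final), methanol-fixed, immunostained for Eb1 and imaged at 20×. Value is the lowest active concentration (LAC): the concentration at which Eb1 foci are absent in at least 50% of treated cells.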

tubulin = assay: Tubulin polymerization assay; assay type: biochemical; set-up: key: a compound showing 0 to 50% inhibition at 20 μM is reported as score 1; Score 2 compounds are defined as compound showing more than 50% inhibition at 20 μM and less than 50% inhibition at 5 μM; a compound showing more than 50% inhibition at 5 μM is reported as score 3; details: tested at 20 μM and 5 μM
In short: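 Cytoskeleton kit tubulin was run in a 10 µl final volume at 37 °C, with fluorescence read every minute for 1 h. Polymerization was taken as the maximum slope (4-point linear regression) and expressed as % of no-compound control. Compounds were tested at 20 µM, then at 5 µM if inhibition exceeded 50%, and scored by % inhibition.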

HCT116 cells = assay: Antiproliferative activity, Alamar Blue assay, HCT116 cells; assay type: cell-based, human; details: Homo sapiens, HCT-116, HCT116 cells; read-out: HCT116 antiproliferative activity pIC50 (converted)
In short: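 HCT116 cells seeded, adhered 24 h, then exposed to compound for 4 days; Alamar Blue (resazurin) added for 4 h at 37 °C, fluorescence read at 540/590 nm. Viability as % of untreated control, triplicate wells; IC50 by probit analysis, reported as pIC50.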

| SMILES | IC50 (HCT116 cells) | melting point | minimal effective concentration (PC3 cells) | tubulin polymerisation score (tubulin) |
| --- | --- | --- | --- | --- |
| CCc1cc2ccc([C@@](C)(C#N)CN(C)Cc3ccc(C#N)cc3)cc2[nH]c1=O (single isomer, unassigned) [Compound 253] | 63.1 nM | 116 °C | 0.1 µM | 2 |
| CCc1cc2ccc(C(C)(C#N)CCCN(C)C(=O)c3ccc(F)cc3)cc2[nH]c1=O (stereo not shown) [Compound 188] | 1000 nM | 256 °C | 1 µM | – |
| CCc1cc2ccc([C@](C)(C#N)CN(C)Cc3ccc(C#N)cc3)cc2[nH]c1=O [Compound 190] | 10000 nM | 106 °C | 10 µM | – |
| COc1cc2ccc(C(C)(C#N)Cc3cccc(C#N)n3)cc2[nH]c1=O (stereo not shown) [Compound 218] | 1260 nM | 95 °C | 0.316 µM | 2 |
| CCc1cc2ccc(C(C)(C#N)Cc3cc(C#N)cc4c3OCC4)cc2[nH]c1=O (stereo not shown) [Compound 236] | 200 nM | 250 °C | 0.316 µM | 2 |

The next lines start with results.

| IC50 (HCT116 cells) | melting point | SMILES | minimal effective concentration (PC3 cells) | tubulin polymerisation score (tubulin) |
| --- | --- | --- | --- | --- |
| 50.1 nM | 158 °C | CCc1cc2ccc(C(C)(C#N)Cc3cccc(I)c3)cc2[nH]c1=O (stereo not shown) [Compound 19] | 0.316 µM | 2 |
| 2000 nM | 167 °C | CCc1cc2ccc(C(C)(C#N)Cc3ccc(OC)nc3Cl)cc2[nH]c1=O (stereo not shown) [Compound 224] | 0.316 µM | – |
| 501 nM | 160 °C | CCc1cc2ccc(C(C)(C#N)Cc3ccc(Cl)nc3OC)cc2[nH]c1=O (stereo not shown) [Compound 225] | 1 µM | 2 |
| 1260 nM | 155 °C | CCc1cc2ccc(C(C)(C#N)Cc3cccc(N4CCCC4)n3)cc2[nH]c1=O (stereo not shown) [Compound 226] | 3.16 µM | 2 |
| 100 nM | 65 °C | CCc1cc2ccc(C(C)(C#N)Cc3cc(OC)cc(OC)n3)cc2[nH]c1=O (stereo not shown) [Compound 232] | 0.1 µM | 2 |
| 1580 nM | 250 °C | CCc1cc2ccc(C(C)(C#N)Cc3cc4ccccc4nn3)cc2[nH]c1=O (stereo not shown) [Compound 238] | 1 µM | – |
